PubChem BioAssay (NCI)
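Interpolation was linear, between the two tested concentrations surrounding the appropriate level; five concentrations were tested over 48 hours in 96-well plates. At the GI50, growth is halved. At the TGI there is no net growth.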

Tests used:
Experiment in all cases: NCI-60 cell line screen, 48 h
[1] = test system: 786-0 renal
[2] = test system: HOP-62 NSCLC
[3] = test system: K-562 leukemia
[4] = test system: M14 melanoma
[5] = test system: NCI-H460 lung
[6] = test system: SN12C renal
[7] = test system: SNB-19 CNS
[8] = test system: SR leukemia

| Compound | GI50 [1] [µM] | TGI [1] [µM] | GI50 [2] [µM] | TGI [2] [µM] | GI50 [3] [µM] | TGI [3] [µM] | GI50 [4] [µM] | TGI [4] [µM] | GI50 [5] [µM] | TGI [5] [µM] | GI50 [6] [µM] | TGI [6] [µM] | GI50 [7] [µM] | TGI [7] [µM] | GI50 [8] [µM] | TGI [8] [µM] |
| --- | --- | --- | --- | --- | --- | --- | --- | --- | --- | --- | --- | --- | --- | --- | --- | --- |
| O=[N+]([O-])c1ccccc1/C=N\NC(=S)N/N=C/c1ccccc1[N+](=O)[O-] | 38 | > 100 | 5.57 | > 100 | 3.43 | > 100 | 3.76 | > 100 | 3.64 | > 100 | 10.6 | > 100 | 6.71 | > 100 | 2.87 | > 100 |
| N[C@H]1CCC[C@@H](O)C1O (some centres undefined) | – | > 100 | – | > 100 | – | > 100 | – | > 100 | – | > 100 | – | > 100 | – | > 100 | – | > 100 |
| CC(C)(C)OC(=O)NCCCCCCCCCn1c2c(c3ccccc3c1=O)C(=O)c1ccccc1-2 | 17.5 | 76.9 | 24.8 | 71.6 | > 100 | > 100 | > 100 | > 100 | > 100 | > 100 | 76.8 | > 100 | 28.2 | > 100 | – | – |
| CN(C)S(=O)(=O)c1cccc(C(=O)Nc2nc(-c3ccc(F)c(F)c3)cs2)c1 | 18.8 | 90.4 | 12.7 | > 100 | 5.1 | > 100 | 23.5 | > 100 | 12.8 | > 100 | 25.9 | > 100 | 35.4 | > 100 | 6.17 | > 100 |
| O=NNc1ccc(-c2ccccc2)cn1 | – | > 39.2 | – | 20.6 | – | > 100 | – | 39.2 | – | 42.9 | – | > 35.1 | – | > 69 | – | – |
| CN1CCN(C2=C(Cl)C(=O)c3ccccc3C2=O)CC1 | 1.77 | 3.39 | 2.04 | 5.12 | 1.65 | 7.57 | 1.78 | 3.23 | 2.95 | 9.47 | 1.61 | 3.08 | 4.08 | 15.3 | 3.42 | > 27.3 |
| O=C(O)CCCN1C(=O)/C(=C/C(Cl)=C/c2ccccc2)SC1=S | 2.33 | 6.39 | 2.94 | 10.5 | 1.52 | 16.3 | 1.81 | 5.12 | 2.47 | 6.76 | 2.05 | 6.79 | 2.78 | 10.9 | 0.719 | 15.3 |
| OCc1c(-c2cccs2)oc(-c2cccs2)c1CO | > 100 | > 100 | > 100 | > 100 | 41 | > 100 | 47.8 | > 100 | 28.4 | > 100 | – | – | 67.5 | > 100 | 32.5 | 60.5 |
| COc1ccc(-n2nc(C)c3c(Nc4ccc(NC(=O)Nc5cccc(C(F)(F)F)c5)cc4)ncnc32)cc1 | 1.56 | 3.03 | 1.73 | 3.45 | 2.18 | 7.22 | 1.54 | 3.36 | 1.98 | 4.12 | 1.79 | 3.86 | 1.95 | 4.65 | 2.54 | 9.38 |
| O=C(CCN1CCCC1)Nc1ccc2c(Nc3ccc(F)cc3)c3ccccc3nc2c1 | 1.21 | 2.77 | 0.864 | 3.7 | – | – | 1.64 | 3.53 | 0.211 | 1.38 | 0.523 | 2.43 | 0.836 | 3.53 | 0.174 | 2.3 |
| COC(=O)CNC(=O)C(=O)c1c(O)c(O)c(C(C)C)c2cc(C)c(-c3c(C)cc4c(C(C)C)c(O)c(O)c(C(=O)C(=O)NCC(=O)OC)c4c3O)c(O)c12 | 2.35 | 8.77 | 2.41 | 9.61 | 1.88 | > 50 | 2.09 | 9.9 | 1.52 | 4.57 | 1.97 | 8.13 | 1.53 | 7.92 | 1.32 | 7.76 |
| O=C(Nc1cc(Cl)c(I)c(Cl)c1)C(F)(F)F | – | 74.4 | – | > 100 | – | 81.8 | – | 60.3 | – | > 100 | – | > 100 | – | > 100 | – | 99.5 |
| CCN(Cc1ccc(Cl)c(Cl)c1)c1ccc2nc(N)nc(N)c2c1C | < 0.01 | 1.27 | – | – | – | – | < 0.01 | 1.63 | < 0.01 | 1.47 | – | – | 0.0141 | 1.51 | – | – |
| COc1ccc(C2=Nn3c(nnc3-c3ccc(F)c(Cl)c3)SC2)cc1 | > 100 | > 100 | > 100 | > 100 | > 100 | > 100 | > 100 | > 100 | > 100 | > 100 | 5.53 | > 100 | > 100 | > 100 | – | – |
| O=S(=O)(F)Cc1ccccc1 | – | > 100 | – | > 100 | – | > 100 | – | > 100 | – | > 100 | – | > 100 | – | > 100 | – | > 100 |
| COc1ccc(/C=C\c2cc(OC)c(OC)c(OC)c2)cc1NC(=O)/C=C/c1ccc(OC)c(OC)c1 | 4.79 | > 100 | 5.42 | > 100 | – | – | 4.3 | > 100 | 3.46 | > 100 | 5.43 | > 100 | 4.15 | > 100 | 0.412 | > 100 |
| O=C1OC(c2ccc([N+](=O)[O-])cc2)=N/C1=C\c1ccc(Cl)cc1 | – | > 100 | – | > 100 | – | > 100 | – | > 100 | – | > 100 | – | > 100 | – | > 100 | – | > 100 |
| O=C(O)/C=C/c1c2ccc(=O)c(O)c-2oc2c(O)c(O)ccc12 | – | 54.9 | – | 61.1 | – | 50.2 | – | > 100 | – | > 100 | – | 32.3 | – | > 100 | – | > 100 |

| Compound | GI50 [1] [µM] | TGI [1] [µM] | GI50 [2] [µM] | TGI [2] [µM] | GI50 [3] [µM] | TGI [3] [µM] | GI50 [4] [µM] | TGI [4] [µM] | GI50 [5] [µM] | TGI [5] [µM] | GI50 [6] [µM] | TGI [6] [µM] | GI50 [7] [µM] | TGI [7] [µM] | GI50 [8] [µM] | TGI [8] [µM] |
| --- | --- | --- | --- | --- | --- | --- | --- | --- | --- | --- | --- | --- | --- | --- | --- | --- |
| CCN(Cc1cc(Cl)cc(C)c1O)Cc1c(O)ccc2ccccc12 | – | 34 | – | 26.4 | – | 65.4 | – | 35.9 | – | 36 | – | 37 | – | 40.9 | – | 52.5 |
| COC1CCCc2c(OC(C)=O)ccc(OC(C)=O)c21 (centres undefined) | – | > 100 | – | > 100 | – | > 100 | – | > 100 | – | – | – | > 100 | – | > 100 | – | > 100 |
| O=C(O)c1cccc([As]=[As]c2cccc(C(=O)O)c2)c1 (centres undefined) | – | 71.1 | – | > 100 | – | > 100 | – | > 100 | – | > 100 | – | > 100 | – | > 100 | – | 89.5 |
| CN(c1cccc(C(=O)O)c1)c1cc(O/N=[N+](\[O-])N(C)C)c([N+](=O)[O-])cc1[N+](=O)[O-] | > 100 | > 100 | 46.8 | > 100 | 78.8 | > 100 | – | – | > 100 | > 100 | > 100 | > 100 | > 100 | > 100 | 56.4 | > 100 |
| CCCC(=O)Oc1ccc(/C(=C(\C)c2ccc(Cl)cc2)c2ccc(OCCN(CC)CC)cc2)cc1 | 1.74 | 3.5 | 2.16 | 4.68 | 2.08 | 5.09 | 1.9 | 4.36 | 2.12 | 4.4 | 4.55 | 18.1 | 2.81 | 7.29 | 1.98 | 6.92 |
| COc1ccc(-n2cc(-c3cc(OC)c(OC)c(OC)c3)nc2SCc2cccc(C#N)c2)cc1OC | > 100 | > 100 | > 100 | > 100 | 56.9 | > 100 | > 100 | > 100 | > 100 | > 100 | > 100 | > 100 | > 100 | > 100 | – | – |
| O=CNC(Cc1cnc[nH]1)C(=O)O (centres undefined) | – | > 100 | – | > 100 | – | > 100 | – | > 100 | – | > 100 | – | > 100 | – | > 100 | – | > 100 |
| CC(C)(C)OC(=O)N(CCCCN(CCCn1c2c(c3ccccc3c1=O)C(=O)c1ccccc1-2)C(=O)OC(C)(C)C)CCCn1c2c(c3ccccc3c1=O)C(=O)c1ccccc1-2 | 26.8 | > 100 | 11 | 73.8 | 90.5 | > 100 | 31.3 | > 100 | 6.32 | 19.3 | 36 | > 100 | 72 | > 100 | 0.304 | > 100 |
| COc1ccc(-c2cn(C)c3c2-n2cccc2C3=O)cc1O | 9.86 | 30.7 | 5.93 | 29.3 | 4.3 | > 100 | 6.57 | 20.3 | 3.06 | 20 | 10.8 | 41.2 | – | – | – | – |
| C[C@H]1C[C@@H](n2c(Nc3ccc(OC(F)(F)F)cc3)nc3cc(CCC(=O)O)ccc32)CC(C)(C)C1 | 5.5 | 19.7 | 20.6 | 39.4 | 11.9 | 37.7 | 7.09 | 25 | 9.74 | 24.7 | 9.95 | 28 | 12.1 | 31.2 | 6.23 | 36.6 |
| CC(NCCN(C)C)C1CCC2C3CCc4cc(O)ccc4C3CCC12C (centres undefined) | – | 4.1 | – | 8.7 | – | 4.81 | – | 3.09 | – | 4.68 | – | 4.42 | – | 13.2 | – | 3.85 |
| CC(=O)c1cc2c(Br)cccc2oc1=O | – | > 100 | – | > 100 | – | > 100 | – | > 100 | – | > 100 | – | > 100 | – | > 100 | – | > 100 |
| Cc1cc(NC(=O)NCCOc2ccc(N3C(N)=NC(N)=NC3(C)C)cc2Cl)ccc1S(=O)(=O)F | 5.02 | > 100 | 8.36 | > 73.2 | 0.599 | > 100 | 4.1 | > 100 | 0.391 | 17.6 | 1.85 | > 100 | 4.31 | > 100 | 0.493 | 40 |
| COc1ccc(-c2nc(NC(=O)CS(=O)(=O)c3ccc(F)cc3)sc2C)cc1 | 23 | 61.3 | 22.4 | 87.1 | 3.94 | > 100 | 19.1 | 55.7 | 20.1 | 51.5 | 19 | 52.5 | 33.4 | > 100 | 4.32 | 46.1 |
| Nc1[nH]nc(Nc2ccccc2)c1-c1nc2ccccc2s1 | 1.34 | 3.08 | 2.08 | 5.87 | 1.88 | 7.81 | 1.55 | 3.58 | 1.94 | 4.17 | 1.58 | 3.24 | 2.08 | 4.56 | 1.84 | 8.02 |
| O=C1/C(=C/c2ccc(F)cc2)COc2ccc(O)c(O)c21 | 1.84 | 5.63 | 3.43 | 17.8 | 0.354 | > 100 | 3.21 | 19.2 | 3.33 | > 100 | 1.26 | 3.79 | 3.36 | 15.8 | – | – |
| O=C(c1ccc(Cl)cc1Cl)N1CCN(C(=O)c2ccc(Cl)cc2Cl)C1=S | 18.6 | 42.3 | 23.1 | 66.5 | 31.4 | > 100 | 16.3 | 30.2 | 35.4 | > 100 | 18.1 | 34.4 | 24.9 | 65.2 | – | – |
| O=C1c2ccccc2C(=O)N1c1ccc(Cc2ccc(N3C(=O)c4ccccc4C3=O)cc2)cc1 | – | > 100 | – | > 100 | – | > 100 | – | > 100 | – | > 100 | – | > 100 | – | > 100 | – | – |
